In EP0212404A1, “7-oxo-4-thia-1-azabicyclo [3.2.0] hept-2-ene derivatives” (HOECHST AKTIENGESELLSCHAFT, priority 1985, dated 1987) one finds MIC data, which are given here for 5 molecules.

Converted amounts (≈) assume the structure as drawn. Where two headings read alike, the source gives them in different places.

Common to all, as to test: agar dilution test (MIC)
Assay type in all cases: cell-based

Assay [1] relates to E.coli DC2. The settings on record: Escherichia coli, Mueller Hinton agar, 16 to 18 hours at 37°C, read-out: Minimum Inhibitory Concentration (MIC). Here is the method:
(§1) The antimicrobial activity was determined by measuring the Minimum Inhibitory Concentration (MIC). The MIC of the compounds was determined by a standard test, the "agar dilution test" according to Lorian (Antibiotics in Laboratory Medicine, Williams and Wilkins, Baltimore/London 1980) as follows:
(§2) A two-fold decreasing concentration series of each compound was prepared in Petri dishes containing 15 ml of Mueller Hinton agar (Difco). One Petri dish containing only the Mueller Hinton agar served as control for bacterial growth. Each Petri dish was inoculated with a multi-point inoculator (Denley), which transferred 0.6µl of a 1:100 diluted 18 hours culture of the appropriate test bacterium. After 16 to 18 hours of incubation at 37°C the Petri dishes were examined for growth of bacteria. The lowest concentration of the compound which causes complete inhibition of growth is taken as the MIC except that the growth of a single colony or a haze is not taken as evidence of qrowth.

The subject of assay [2] is Kl.aerog. 1522E. The settings on record: read-out: Minimum Inhibitory Concentration (MIC). The protocol: as §1, §2
Assay [3] concerns E.coli 055. The settings on record: Escherichia coli, Mueller Hinton agar, 16 to 18 hours at 37°C, read-out: Minimum Inhibitory Concentration (MIC). Here is the method: as §1, §2
For assay [4], the system named is Bac.subt. ATCC6633. The settings on record: Mueller Hinton agar, 16 to 18 hours at 37°C, read-out: Minimum Inhibitory Concentration (MIC). Here is the method:
as §1, §2

The subject of assay [5] is E.coli TEM. The settings on record: Escherichia coli, read-out: Minimum Inhibitory Concentration (MIC). Here is the method: as §1, §2
In assay [6] the test system is Str.pyogenes 308A. The settings on record: Streptococcus pyogenes, Mueller Hinton agar, 16 to 18 hours at 37°C, read-out: Minimum Inhibitory Concentration (MIC). Here is the method:
as §1, §2

Assay [7] relates to Staph.aureus 285. The settings on record: Staphylococcus aureus, Mueller Hinton agar, 16 to 18 hours at 37°C, read-out: Minimum Inhibitory Concentration (MIC). The protocol: as §1, §2
Assay [8] relates to E.coli 1507E. Particulars: Escherichia coli, read-out: Minimum Inhibitory Concentration (MIC). Here is the method:
as §1, §2

For assay [9], the system named is Str.faecium D. Particulars: Enterococcus faecium, read-out: Minimum Inhibitory Concentration (MIC). Here is the method:
as §1, §2

In assay [10] the test system is Staph.aureus 503. Particulars: Staphylococcus aureus, Mueller Hinton agar, 16 to 18 hours at 37°C, read-out: Minimum Inhibitory Concentration (MIC). Here is the method: as §1, §2
Assay [11] deals with Staph.aureus SG511. Particulars: Staphylococcus aureus, Mueller Hinton agar, 16 to 18 hours at 37°C, read-out: Minimum Inhibitory Concentration (MIC). The protocol:
as §1, §2

Assay [12] concerns E.coli DC0. Particulars: Escherichia coli, Mueller Hinton agar, 16 to 18 hours at 37°C, read-out: Minimum Inhibitory Concentration (MIC). Here is the method:
as §1, §2

Assay [13] relates to Ent.cloacae P99. Particulars: Enterobacter cloacae, Mueller Hinton agar, 16 to 18 hours at 37°C, read-out: Minimum Inhibitory Concentration (MIC). Here is the method:
as §1, §2

In assay [14] the test system is Kl.aerog. 1082E. The settings on record: Mueller Hinton agar, 16 to 18 hours at 37°C, read-out: Minimum Inhibitory Concentration (MIC). The protocol:
as §1, §2

The subject of assay [15] is Str.pyogenes 77A. Particulars: Streptococcus pyogenes, Mueller Hinton agar, 16 to 18 hours at 37°C, read-out: Minimum Inhibitory Concentration (MIC). The protocol:
as §1, §2

For assay [16], the system named is E.coli KN126. Particulars: Escherichia coli, Mueller Hinton agar, 16 to 18 hours at 37°C, read-out: Minimum Inhibitory Concentration (MIC). Here is the method: as §1, §2
Assay [17] concerns Salm.typh. MZII. Particulars: Mueller Hinton agar, 16 to 18 hours at 37°C, read-out: Minimum Inhibitory Concentration (MIC). Here is the method:
as §1, §2

In assay [18] the test system is Ent.cloacae 1321E. The settings on record: Enterobacter cloacae, read-out: Minimum Inhibitory Concentration (MIC). The protocol: as §1, §2
Where [19] appears, read: Str.faecium D, Mueller Hinton agar, 16 to 18 hours at 37°C.
The mark [20] stands for this setting: Kl.aerog. 1522E, Mueller Hinton agar, 16 to 18 hours at 37°C.
The mark [21] stands for this setting: E.coli 1507E, Mueller Hinton agar, 16 to 18 hours at 37°C.

Turning to `C[C@@H](O)[C@H]1C(=O)N2C(C(=O)O)=C(c3ccc(Cl)cc3)S[C@H]12` [Example 4-Cl], the MIC is 0.39 µg/mL (≈ 1.2 µM) in [1]; 12.5 µg/mL (≈ 38.4 µM) in assay [2]; 3.13 µg/mL (≈ 9.61 µM) in [3]; 0.05 µg/mL (≈ 0.153 µM) in [4]; 12.5 µg/mL (≈ 38.4 µM) in assay [5]; < 0.05 µg/mL in [6]. Besides, the MIC worked out at 0.1 µg/mL (≈ 0.307 µM) in assay [7]; 12.5 µg/mL (≈ 38.4 µM) in assay [8] (1507E); 1.56 µg/mL (≈ 4.79 µM) in assay [9] (setting [19]); 0.1 µg/mL (≈ 0.307 µM) in assay [10]; 0.05 µg/mL (≈ 0.153 µM) in assay [11]; 25 µg/mL (≈ 76.7 µM) in assay [12]. Moreover, the MIC is 50 µg/mL (≈ 153 µM) in [13]; 0.78 µg/mL (≈ 2.39 µM) in assay [14]; < 0.05 µg/mL in [15]; 12.5 µg/mL (≈ 38.4 µM) in assay [16]; 6.25 µg/mL (≈ 19.2 µM) in assay [17]; 6.25 µg/mL (≈ 19.2 µM) in assay [18] (1321E).

Regarding `C[C@@H](O)[C@H]1C(=O)N2C(C(=O)O)=C(c3ccc(F)cc3)S[C@H]12` [Example 4-F], the MIC is 1.56 µg/mL (≈ 5.04 µM) in assay [1]; 12.5 µg/mL (≈ 40.4 µM) in assay [2] (setting [20]); 1.56 µg/mL (≈ 5.04 µM) in assay [3]; 0.1 µg/mL (≈ 0.323 µM) in assay [4]; 6.25 µg/mL (≈ 20.2 µM) in [5]; < 0.05 µg/mL in assay [6]. In addition, the MIC was found to be 0.19 µg/mL (≈ 0.614 µM) in assay [7]; 6.25 µg/mL (≈ 20.2 µM) in [8] (1507E); 3.13 µg/mL (≈ 10.1 µM) in assay [9]; 0.19 µg/mL (≈ 0.614 µM) in assay [10]; 0.19 µg/mL (≈ 0.614 µM) in assay [11]; 25 µg/mL (≈ 80.8 µM) in [12]. In addition, the MIC is 25 µg/mL (≈ 80.8 µM) in assay [13]; 1.56 µg/mL (≈ 5.04 µM) in [14]; < 0.05 µg/mL in assay [15]; 6.25 µg/mL (≈ 20.2 µM) in assay [16]; 3.13 µg/mL (≈ 10.1 µM) in assay [17]; 3.13 µg/mL (≈ 10.1 µM) in assay [18] (1321E).

For `C[C@@H](O)[C@H]1C(=O)N2C(C(=O)O)=C(c3ccc(NC=O)cc3)S[C@H]12` [Example 4-NHCHO], the MIC in assay [1] is 0.19 µg/mL (≈ 0.568 µM); in assay [2] (setting [20]) it was 0.39 µg/mL (≈ 1.17 µM); in assay [3], 0.19 µg/mL (≈ 0.568 µM); in assay [4], 0.025 µg/mL (≈ 0.0748 µM); in assay [5], 0.39 µg/mL (≈ 1.17 µM); in assay [6], < 0.013 µg/mL. Further, the MIC in [7] was determined as 0.1 µg/mL (≈ 0.299 µM); in assay [8] (setting [21]) it was 0.39 µg/mL (≈ 1.17 µM); in assay [9] (setting [19]), 0.78 µg/mL (≈ 2.33 µM); in assay [10] it was 0.1 µg/mL (≈ 0.299 µM); in assay [11] it was 0.05 µg/mL (≈ 0.15 µM); in assay [12], 0.78 µg/mL (≈ 2.33 µM). Besides, the MIC in [13] was 6.25 µg/mL (≈ 18.7 µM); in assay [14], 0.19 µg/mL (≈ 0.568 µM); in assay [15], < 0.013 µg/mL; in [16], 0.39 µg/mL (≈ 1.17 µM); in assay [18] (Ent.cloacae 1321E, Mueller Hinton agar, 16 to 18 hours at 37°C), 0.39 µg/mL (≈ 1.17 µM).

Regarding `CSc1ccc(C2=C(C(=O)O)N3C(=O)[C@H]([C@@H](C)O)[C@H]3S2)cc1` [Example 4-SCH3], the MIC is 0.78 µg/mL (≈ 2.31 µM) in [1]; 25 µg/mL (≈ 74.1 µM) in [2] (setting [20]); 6.25 µg/mL (≈ 18.5 µM) in [3]; 0.1 µg/mL (≈ 0.296 µM) in assay [4]; 25 µg/mL (≈ 74.1 µM) in [5]; < 0.05 µg/mL in assay [6]. Also, the MIC in assay [7] was found to be 0.19 µg/mL (≈ 0.563 µM); in assay [8] (setting [21]) it was 25 µg/mL (≈ 74.1 µM); in [9] (setting [19]) it was 3.13 µg/mL (≈ 9.28 µM); in assay [10] it was 0.19 µg/mL (≈ 0.563 µM); in [12], 50 µg/mL (≈ 148 µM); in assay [13] it was 50 µg/mL (≈ 148 µM). The MIC in [14] is 0.78 µg/mL (≈ 2.31 µM); in [15] it was < 0.05 µg/mL; in assay [16], 12.5 µg/mL (≈ 37 µM); in assay [17] it was 12.5 µg/mL (≈ 37 µM); in [18] (1321E) it was 12.5 µg/mL (≈ 37 µM).

For the molecule `C[C@@H](O)[C@H]1C(=O)N2C(C(=O)O)=C(c3ccccc3)S[C@H]12` [H], the MIC in [1] is 0.39 µg/mL (≈ 1.34 µM); in assay [2], 1.56 µg/mL (≈ 5.35 µM); in assay [3] it was 0.78 µg/mL (≈ 2.68 µM); in [4], 0.1 µg/mL (≈ 0.343 µM); in [5], 1.56 µg/mL (≈ 5.35 µM); in [6], < 0.05 µg/mL. Further, the MIC in [7] worked out at 0.19 µg/mL (≈ 0.652 µM); in assay [8] (1507E) it was 1.56 µg/mL (≈ 5.35 µM); in assay [9], 1.56 µg/mL (≈ 5.35 µM); in assay [10], 0.1 µg/mL (≈ 0.343 µM); in assay [11] it was 0.1 µg/mL (≈ 0.343 µM); in [12], 3.12 µg/mL (≈ 10.7 µM). Besides, the MIC in assay [13] was 12.5 µg/mL (≈ 42.9 µM); in [14], 0.78 µg/mL (≈ 2.68 µM); in assay [15], < 0.05 µg/mL; in assay [16], 3.12 µg/mL (≈ 10.7 µM); in [18] (1321E) it was 1.56 µg/mL (≈ 5.35 µM).
